Blank lines part the entries; values can stand above or below the compound they belong to.
Key:
[1] = target: T1, lipoxygenase (EC 1.13.11.12) Type 1 (soybean) (Glycine max, UniProt P08170); experiment: spectrophotometric lipoxygenase inhibition assay with linoleic acid substrate (positive control); format: biochemical
T1 construct: gene LOX1.1
T1 sequence (P08170 1-839): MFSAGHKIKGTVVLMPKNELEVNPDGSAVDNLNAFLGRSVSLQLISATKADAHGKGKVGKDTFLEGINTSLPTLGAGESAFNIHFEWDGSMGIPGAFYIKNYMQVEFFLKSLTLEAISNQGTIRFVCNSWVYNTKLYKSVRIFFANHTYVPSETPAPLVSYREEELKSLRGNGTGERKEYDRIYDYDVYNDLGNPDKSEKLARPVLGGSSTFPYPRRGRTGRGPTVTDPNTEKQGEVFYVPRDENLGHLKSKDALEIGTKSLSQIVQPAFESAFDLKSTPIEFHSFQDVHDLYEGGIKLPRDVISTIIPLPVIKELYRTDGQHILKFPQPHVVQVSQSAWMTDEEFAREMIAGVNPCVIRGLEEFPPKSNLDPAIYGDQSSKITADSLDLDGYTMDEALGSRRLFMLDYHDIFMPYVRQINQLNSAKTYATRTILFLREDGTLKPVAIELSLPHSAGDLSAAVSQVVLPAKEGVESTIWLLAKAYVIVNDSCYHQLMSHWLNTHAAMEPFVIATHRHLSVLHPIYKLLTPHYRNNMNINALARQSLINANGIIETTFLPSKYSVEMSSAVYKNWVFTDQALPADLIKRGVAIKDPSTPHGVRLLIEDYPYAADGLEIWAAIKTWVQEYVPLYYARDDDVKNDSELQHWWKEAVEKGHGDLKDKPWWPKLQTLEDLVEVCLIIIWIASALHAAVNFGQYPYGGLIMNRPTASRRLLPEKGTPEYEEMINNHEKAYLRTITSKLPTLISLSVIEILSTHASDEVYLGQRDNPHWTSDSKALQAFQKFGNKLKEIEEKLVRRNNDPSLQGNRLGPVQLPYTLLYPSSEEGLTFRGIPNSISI

[2] = target: T1, lipoxygenase (EC 1.13.11.12) Type 1 (soybean); experiment: spectrophotometric lipoxygenase inhibition assay with linoleic acid substrate; format: biochemical

SMILES: O=c1cc(-c2ccccc2)oc2cc(O)c(O)c(O)c12 [Baicalein]
IC50 [1]: 40.9 µM

IC50 ([1]; read-out: IC50): 23 µM
SMILES: NC(=O)N1C(=O)/C(=C(\O)c2cccs2)c2cc(Cl)ccc21 [Tenidap]

IC50 [2]: 37 µM
SMILES: COc1c(C)c(-c2cc(O)c3c(c2O)C(=O)C(C)=CC3=O)c(OC)c2c1C(=O)C=CC2=O [compound 1, 1′,4′-dihydroxy-1,4-dimethoxy-3,7′-dimethyl-[2,2′-binaphthalene]-5,5′,8,8′-tetraone]
